In patent US20260250318A1, “COMPOSITIONS AND METHODS FOR CROSSING THE BLOOD BRAIN BARRIER” (VOYAGER THERAPEUTICS, INC., priority 2022, published 2026):

What was measured:
brain = assay: Matured TTM-001 and TTM-002 variants, NGS enrichment in mouse brain; format: in vivo, mice; settings: relative to AAV9 control
[1] = system: brains, heart, liver, muscle, and DRG of the NHPs; assay: Maturation of TTM-001 and TTM-002 capsids, NGS enrichment in NHP tissues; format: in vivo; settings: relative to AAV9 control
How it was run: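 Variants carry mutations within and flanking the loop IV peptide insert: positions 450–466 were triplet-randomized, while positions 449–466 received low-frequency point mutations. The combined pool went into two NHPs, and each peptide was scored by NGS enrichment ratio against AAV9.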

[2] = NGS fold-enrichment, mouse brain
[3] = NGS fold-enrichment of RNA, NHP brain
[4] = NGS fold-enrichment, NHP liver DNA
[5] = NGS fold-enrichment, NHP liver RNA
[6] = NGS fold-enrichment, NHP muscle
[7] = NGS fold-enrichment, brain of mice
[8] = NGS fold-enrichment, DRG of NHPs
[9] = NGS fold-enrichment, RNA, brain of NHPs
[10] = NGS fold-enrichment, heart of NHPs
[11] = NGS fold-enrichment, liver DNA of NHPs
[12] = NGS fold-enrichment, liver RNA of NHPs
[13] = NGS fold-enrichment, muscle of NHPs
[14] = NGS fold-enrichment of matured AAV capsid variants, NHP brain, RNA

Sequence | Fold Enrichment relative to AAV9, Brain (Mouse) (brain; [2]) [fold] | Fold Enrichment relative to AAV9, Brain (NHP) [1, 3] [fold] | Fold Enrichment relative to AAV9, DRG (NHP) ([1]; NGS fold-enrichment, NHP DRG) [fold] | Fold Enrichment relative to AAV9, Heart (NHP) ([1]; NGS fold-enrichment, NHP heart) [fold] | Fold Enrichment relative to AAV9, Liver DNA (NHP) [1, 4] [fold] | Fold Enrichment relative to AAV9, Liver RNA (NHP) [1, 5] [fold] | Fold Enrichment relative to AAV9, Muscle (NHP) [1, 6] [fold] | Fold Enrichment relative to AAV9, Brain (Mouse) (brain; [7]) [fold] | Fold Enrichment relative to AAV9, DRG (NHP) [1, 8] [fold] | Fold Enrichment relative to AAV9, Brain (NHP) [1, 9] [fold] | Fold Enrichment relative to AAV9, Heart (NHP) [1, 10] [fold] | Fold Enrichment relative to AAV9, Liver DNA (NHP) [1, 11] [fold] | Fold Enrichment relative to AAV9, Liver RNA (NHP) [1, 12] [fold] | Fold Enrichment relative to AAV9, Muscle (NHP) [1, 13] [fold] | further results
KTIEGHDSPHKSGRNQQT | 7.818 | 75.838 | 0.000 | 0.065 | 0.079 | 0.000 | 0.017 |  |  |  |  |  |  |  | 
KTIIGGGSPHSKAHNQQT | 65.492 | 75.872 | 0.000 | 0.050 | 0.235 | 0.000 | 0.000 | 65.492 | 0.000 | 75.872 | 0.050 | 0.235 | 0.000 | 0.000 | 
KTIIGGGSPHSKAQNPQT |  |  |  |  |  |  |  |  |  |  |  |  |  |  | Fold Enrichment relative to AAV9, Brain (Mouse) (brain; mouse brain): 53.992 fold; Fold Enrichment relative to AAV9, Brain (NHP) [1, 14]: 58.924 fold; Fold Enrichment relative to AAV9, DRG (NHP) ([1]; NHP DRG): 0.000 fold; Fold Enrichment relative to AAV9, Heart (NHP) ([1]; NHP heart): 0.202 fold; Fold Enrichment relative to AAV9, Liver DNA (NHP) ([1]; NHP liver, DNA): 0.126 fold; Fold Enrichment relative to AAV9, Liver RNA (NHP) ([1]; NHP liver, RNA): 0.000 fold; Fold Enrichment relative to AAV9, Muscle (NHP) ([1]; NHP muscle): 0.000 fold
KTIIGSGSPHSKAQDRQT |  |  |  |  |  |  |  |  |  |  |  |  |  |  | Fold Enrichment relative to AAV9, Brain (Mouse) (brain; mouse brain): 53.981 fold; Fold Enrichment relative to AAV9, Brain (NHP) [1, 14]: 58.258 fold; Fold Enrichment relative to AAV9, DRG (NHP) ([1]; NHP DRG): 1.393 fold; Fold Enrichment relative to AAV9, Heart (NHP) ([1]; NHP heart): 0.230 fold; Fold Enrichment relative to AAV9, Liver DNA (NHP) ([1]; NHP liver, DNA): 0.045 fold; Fold Enrichment relative to AAV9, Liver RNA (NHP) ([1]; NHP liver, RNA): 0.000 fold; Fold Enrichment relative to AAV9, Muscle (NHP) ([1]; NHP muscle): 0.219 fold
KTIIGSGSPHSKAQHQLT |  |  |  |  |  |  |  | 100.144 | 0.000 | 72.291 | 0.000 | 0.000 | 0.000 | 0.000 | 
KTIIGSGSPHSKAQNRHT | 210.515 | 217.176 | 0.000 | 0.000 | 0.000 | 0.000 | 0.000 | 210.515 | 0.000 | 217.176 | 0.000 | 0.000 | 0.000 | 0.000 | 
KTIIKNGSPHSKAQNQQT |  |  |  |  |  |  |  |  |  |  |  |  |  |  | Fold Enrichment relative to AAV9, Brain (Mouse) (brain; mouse brain): 75.547 fold; Fold Enrichment relative to AAV9, Brain (NHP) [1, 14]: 50.587 fold; Fold Enrichment relative to AAV9, DRG (NHP) ([1]; NHP DRG): 0.000 fold; Fold Enrichment relative to AAV9, Heart (NHP) ([1]; NHP heart): 0.000 fold; Fold Enrichment relative to AAV9, Liver DNA (NHP) ([1]; NHP liver, DNA): 0.751 fold; Fold Enrichment relative to AAV9, Liver RNA (NHP) ([1]; NHP liver, RNA): 0.000 fold; Fold Enrichment relative to AAV9, Muscle (NHP) ([1]; NHP muscle): 0.000 fold
KTIKGNDSPHKSVQNQQT | 8.603 | 85.986 | 0.000 | 0.135 | 0.000 | 0.263 | 0.000 |  |  |  |  |  |  |  | 
KTIKGQDSPHKIGQNQQT | 11.829 | 110.357 | 0.000 | 0.103 | 0.135 | 0.166 | 0.058 |  |  |  |  |  |  |  | 
KTIKGSGSPHSKAQDLQT |  |  |  |  |  |  |  | 58.576 | 0.000 | 63.260 | 0.000 | 0.218 | 0.000 | 0.000 | 
KTINAHDSPHKIGQNHQT | 5.074 | 106.832 | 0.000 | 0.121 | 0.231 | 0.000 | 0.000 |  |  |  |  |  |  |  | 
KTINGCGSPHASGQNQQT | 1.857 | 132.540 | 0.000 | 0.121 | 0.059 | 0.000 | 0.042 |  |  |  |  |  |  |  | 
KTINGGGSPHSKALNQQN | 69.884 | 77.822 | 0.000 | 0.131 | 0.274 | 0.000 | 0.000 | 69.884 | 0.000 | 77.822 | 0.131 | 0.274 | 0.000 | 0.000 | 
KTINGGGSPHSKAQDKQT |  |  |  |  |  |  |  | 50.764 | 0.000 | 59.322 | 0.000 | 0.093 | 0.000 | 0.000 | 
KTINGGGSPHSKAQNPPT |  |  |  |  |  |  |  | 64.045 | 0.000 | 63.041 | 0.082 | 0.057 | 0.000 | 0.000 | 
KTINGGGSPHSKAQNPQA |  |  |  |  |  |  |  |  |  |  |  |  |  |  | Fold Enrichment relative to AAV9, Brain (Mouse) (brain; mouse brain): 102.792 fold; Fold Enrichment relative to AAV9, Brain (NHP) [1, 14]: 51.574 fold; Fold Enrichment relative to AAV9, DRG (NHP) ([1]; NHP DRG): 0.000 fold; Fold Enrichment relative to AAV9, Heart (NHP) ([1]; NHP heart): 0.000 fold; Fold Enrichment relative to AAV9, Liver DNA (NHP) ([1]; NHP liver, DNA): 0.000 fold; Fold Enrichment relative to AAV9, Liver RNA (NHP) ([1]; NHP liver, RNA): 0.192 fold; Fold Enrichment relative to AAV9, Muscle (NHP) ([1]; NHP muscle): 0.000 fold
KTINGGGSPHSKAQNQLI | 78.383 | 83.881 | 0.000 | 0.000 | 0.387 | 0.046 | 0.000 | 78.383 | 0.000 | 83.881 | 0.000 | 0.387 | 0.046 | 0.000 | 
KTINGGGSPHSKAQNQMT |  |  |  |  |  |  |  |  |  |  |  |  |  |  | Fold Enrichment relative to AAV9, Brain (Mouse) (brain; mouse brain): 73.177 fold; Fold Enrichment relative to AAV9, Brain (NHP) [1, 14]: 55.778 fold; Fold Enrichment relative to AAV9, DRG (NHP) ([1]; NHP DRG): 0.000 fold; Fold Enrichment relative to AAV9, Heart (NHP) ([1]; NHP heart): 0.000 fold; Fold Enrichment relative to AAV9, Liver DNA (NHP) ([1]; NHP liver, DNA): 0.012 fold; Fold Enrichment relative to AAV9, Liver RNA (NHP) ([1]; NHP liver, RNA): 0.866 fold; Fold Enrichment relative to AAV9, Muscle (NHP) ([1]; NHP muscle): 0.000 fold
KTINGGGSPHSKAQNQQC | 53.840 | 89.301 | 0.219 | 0.000 | 0.319 | 0.287 | 0.000 | 53.840 | 0.219 | 89.301 | 0.000 | 0.319 | 0.287 | 0.000 | 
